Source: US20210308101A1, “METHODS OF TREATING FIBROMYALGIA” (Aptinyx Inc., priority 2019, published 2021)

What was measured:
[1] = tested on: subjects with fibromyalgia; experiment: Brief Pain Inventory - Short Form (BPI-SF); type: in vivo, human; details: not statistically significant
Source text: As used herein, “Brief Pain Inventory” (BPI)—Short Form is a brief, simple patient-completed numeric rating scale that assesses the severity of pain (Severity scale), its impact on daily functioning (Interference scale), and other aspects of pain (e.g., location of pain, relief from medications). A short form version of the BPI, including the 4-item pain Severity scale (Worst Pain, Least Pain, Average Pain, and Pain Now) and the 7-item pain Interference scale (General Activity, Mood, Walking Ability, Normal Work, Relations with Other People, Sleep, Enjoyment of Life) were the main BPI-Short Form analyses. […] If at least 3 of the 4 Severity items have a reported score, then the Pain Severity Index was the calculated mean. Otherwise, the Pain Severity Index was set to missing. […] Otherwise, the Pain Interference Index was set to missing. […] The Pain Severity Index and the Pain Interference Index were referred to as composite scores.
There may be dates in which worst pain in the last 24 hours has scores that are less than the least pain in the last 24 hours and/or right now pain scores. Also, the least pain in the last 24 hours scores may be greater than the worst pain in the last 24 hours and/or right now pain scores. This may be due to the collection of the data that cannot be changed due to the subject's confusion of the three scores. The Pain Severity Index score equally distributes all these three scores and the average pain score. Therefore, the Pain Severity Index score is not impacted by any of these scores being mixed up. As a result, the scores were analyzed based on the values collected.
The 2 composite scores took on values ranging from 0 to 10 and were rounded off by one number after the decimal point. A total pain score for BPI-Short Form was not calculated. The BPI-Short Form assessment was collected and analyzed at visits Screening, Day 1, Week 2, Week 4, Week 6, and Follow-up (Week 7). The observed composite scores, changes from baseline, and changes from treatment periods were summarized using descriptive statistics. Additionally, the treatment group comparisons were analyzed using the paired t-test and nonparametric Wilcoxon signed-rank test. All BPI-Short Form data collected and the calculated composite scores at each visit were presented in a subject listing. […] Have you had pain other than these everyday kinds of pain today?” is a categorical response (yes/no). […] This question was included in the descriptive statistics, but was not analyzed using any paired t-test and nonparametric Wilcoxon signed-rank test comparisons. • BPI-Short Form question 2, “On the diagram, shade in the areas where you feel pain. […]

[2] = tested on: subjects with fibromyalgia; experiment: Hospital Anxiety and Depression Scale (HADS); type: in vivo, human; details: Weeks 4 and 6
Source text: As used herein, “HADS” is Hospital Anxiety and Depression Scale. The HADS is a self-reported screening tool for anxiety and depression in non-psychiatric clinical populations. The scale consists of 14 items (7 each for anxiety and depression), each rated on a 4-point scale ranging from 0 to 3 (i.e. 0=not at all; 3=most of the time). The categorical responses are slightly different for some of the questions, but the numeric scores remained the same from 0 to 3. Responses were based on the relative frequency of symptoms over the preceding week. […] The individual imputed missing scores used the specific subscale mean score and were rounded off to the nearest whole number. If an individual subscale score was missing 4 or more items, then that subscale score was set to missing. A total score adding the anxiety and depression subscale scores for HADS was not calculated. Possible scores range from 0 to 21 for each subscale. […]
The HADS assessment was collected and analyzed at visits Screening, Day 1, Week 2, Week 4, Week 6, and Follow-up (Week 7). […] Additionally, the treatment group comparisons were analyzed using the paired t-test and nonparametric Wilcoxon signed-rank test.
The 4 interpreted categorical values for each subscale were summarized in a frequency distribution table. All HADS data collected and the calculated subscale scores at each visit were presented in a subject listing.

[3] = Week 2 (placebo) to Week 4 (NYX-2925 20 mg)
[4] = Week 2 (placebo) to Week 6 (NYX-2925 200 mg)

CC(C)C(=O)N1CCC[C@]12CN([C@H](C(N)=O)[C@@H](C)O)C2=O [NYX-2925, (2S, 3R)-3-hydroxy-2-((R)-5-isobutyryl-1-oxo-2,5-diazaspiro[3.4]octan-2-yl)butanamide]
BPI-SF Pain Interference Index score, mean change [1, 3]: −0.04 | BPI-SF Pain Severity Index score, mean change [1, 3]: −0.22 | BPI-SF Pain Interference Index score, mean change [1, 4]: −0.66 | BPI-SF Pain Severity Index score, mean change [1, 4]: −0.27 | HADS Total Anxiety score, mean changes from Week 2 (placebo) [2]: No statistically significant mean changes | HADS Total Depression score, mean changes from Week 2 (placebo) [2]: No statistically significant mean changes
